Test results published in article PMC11274128, “Modification and Synergistic Studies of a Novel Frog Antimicrobial Peptide against Pseudomonas aeruginosa Biofilms” (Antibiotics, 2024).
≈ marks a conversion by molar mass, not a printed value. Where two headings read alike, the source gives them in different places. Bridge positions count the residues as written; N and C are the ends. Ends that are not written are not given here. Peptide text beside a SMILES is read from it.

Legend:
[1] = test system: P. aeruginosa (ATCC CRM 9027); experiment: microbe, parasite or virus in culture; type: cell-based, Pseudomonas aeruginosa; conditions: planktonic P. aeruginosa ATCC CRM 9027; for MIC: 37 °C, nine repeats of three independent experiments; for MBC: lowest concentration killing 99.9% of inoculum
From the text: (§1) The minimum inhibitory concentration (MIC) is the minimum concentration of an antimicrobial agent that prevents the visible growth of a bacterium or bacteria. The MIC is an important piece of data for research on new antimicrobial agents and helps in the effective selection of antibiotics to improve the success of treatment. The minimum bactericidal concentration (MBC) is defined as the lowest antibiotic concentration that kills 99.9% of the inoculum. This study mainly contained eight different microorganisms, which were Staphylococcus aureus (ATCC 6538), methicillin-resistant Staphylococcus aureus (NCTC 12493), Enterococcus faecalis (NCTC 12697), Escherichia coli (ATCC 8739), Klebsiella pneumoniae (ATCC 43816), Pseudomonas aeruginosa (ATCC CRM 9027), Acinetobacter baumannii (BAA 747), and Candida albicans (ATCC 10231). The bacteria were incubated in the compatible medium at 37 °C overnight.

[2] = test system: E. coli (ATCC 8739); experiment: microbe, parasite or virus in culture; type: cell-based, Escherichia coli; conditions: planktonic E. coli ATCC 8739; for MIC: 37 °C, nine repeats of three independent experiments; for MBC: lowest concentration killing 99.9% of inoculum
From the text: as §1

[3] = test system: A. baumannii (BAA 747); experiment: microbe, parasite or virus in culture; type: cell-based, Acinetobacter baumannii; conditions: planktonic A. baumannii BAA 747; for MIC: 37 °C, nine repeats of three independent experiments; for MBC: lowest concentration killing 99.9% of inoculum
From the text: as §1

[4] = test system: horse red blood cells; conditions: horse red blood cells in PBS, 37 °C, 2 h, absorbance 570 nm; positive control 0.1% Triton
Method: The pure peptide was dissolved in PBS and then two-fold diluted to obtain a series of concentrations: 512, 256, 128, 64, 32, 16, 8, 4, and 2 μM. A positive control (0.1% Triton) and blank control (PBS) were used. Two millilitres of fresh horse red blood cells were washed in PBS until the supernatant became colourless and clear, and the mixture was then thoroughly mixed. Each mixture contained 100 μL of peptide solution or controls and 100 μL of horse red blood cells, which were then incubated at 37 °C for 2 h and centrifuged at 930× g for 10 min. Subsequently, 100 μL of supernatant from each tube was transferred into a 96-well plate, and the plate reader measured the absorbance at a wavelength of 570 nm. The haemolysis rate was calculated using the following formula:Percentage Haemolysis= (ASample − ABlank)/(APositive − ABlank) × 100%

[5] = test system: S. aureus (ATCC 6538); experiment: microbe, parasite or virus in culture; type: cell-based, Staphylococcus aureus; conditions: planktonic S. aureus ATCC 6538; for MIC: 37 °C, nine repeats of three independent experiments; for MBC: lowest concentration killing 99.9% of inoculum
From the text: as §1

[6] = test system: G+ Bacteria; experiment: Geometric mean of MICs and TI value; type: cell-based; conditions: geometric mean of MICs against tested Gram-positive bacteria
Method: (§2) The therapeutic potential of antimicrobial agents was valued based on their selectivity toward bacteria in reference to erythrocytes. The TI value was calculated from the results of antibacterial and haemolysis experiments of peptides using the following formula:TI value = HC10 / GMMICs.
(§3) GM was the geometric mean of MICs against all tested bacteria.

[7] = test system: G− Bacteria; experiment: Geometric mean of MICs and TI value; type: cell-based; conditions: geometric mean of MICs against tested Gram-negative bacteria
Method: as §2, §3

[8] = test system: C. albicans (ATCC 10231); type: cell-based, Candida albicans; conditions: yeast C. albicans ATCC 10231; for MIC: 37 °C, nine repeats of three independent experiments; for MBC: lowest concentration killing 99.9% of inoculum
From the text: as §1

[9] = test system: Yeast; experiment: Geometric mean of MICs and TI value; type: cell-based, Candida albicans; conditions: C. albicans ATCC 10231
Method: as §2, §3

[10] = test system: K. pneumoniae (ATCC 43816); experiment: microbe, parasite or virus in culture; type: cell-based, Klebsiella pneumoniae; conditions: planktonic K. pneumoniae ATCC 43816; for MIC: 37 °C, nine repeats of three independent experiments; for MBC: lowest concentration killing 99.9% of inoculum
From the text: as §1

[11] = test system: MRSA (NCTC 12493); experiment: microbe, parasite or virus in culture; type: cell-based, methicillin-resistant Staphylococcus aureus; conditions: planktonic MRSA NCTC 12493; for MIC: 37 °C, nine repeats of three independent experiments; for MBC: lowest concentration killing 99.9% of inoculum
From the text: as §1

[12] = test system: E. faecalis (NCTC 12697); experiment: microbe, parasite or virus in culture; type: cell-based, Enterococcus faecalis; conditions: planktonic E. faecalis NCTC 12697; for MIC: 37 °C, nine repeats of three independent experiments; for MBC: lowest concentration killing 99.9% of inoculum
From the text: as §1

Compound	MIC [1]	MBC [1]	HC10 [4]	MIC [5]	MBC [5]	GM (geometric mean of MICs), G+ Bacteria [6]	GM (geometric mean of MICs), G− Bacteria [7]	MIC [8]	MBC [8]	GM (geometric mean of MICs), Yeast [9]	MIC ([10]; read-out: MIC)	MBC ([10]; read-out: MBC)	MIC ([2]; read-out: MIC)	MBC ([2]; read-out: MBC)	MIC [3]	MBC [3]	MIC [12]	MBC [12]	MIC [11]	MBC [11]	further results
CC[C@H](C)[C@H](NC(=O)[C@H](CCCCN)NC(=O)[C@H](CCCCN)NC(=O)CNC(=O)[C@H](C)NC(=O)[C@H](C)NC(=O)[C@H](CC(C)C)NC(=O)[C@@H](NC(=O)[C@H](C)NC(=O)[C@H](CCCNC(=N)N)NC(=O)[C@H](CC(C)C)NC(=O)[C@H](CC(C)C)NC(=O)CN)C(C)C)C(=O)N[C@H](C(=O)N[C@H]1CSSC[C@@H](C(=O)O)NC(=O)[C@H](CCCNC(=N)N)NC(=O)CNC(=O)[C@H](CO)NC(=O)[C@H](CC(C)C)NC(=O)CNC1=O)C(C)C [Peptide 2085-R] (H-GLLRAVLAAGKKIVCGLSGRC-OH; disulfide 15-21)	64 µM (≈ 133 µg/mL)	64 µM (≈ 133 µg/mL)	>256 µM	16 µM (≈ 33.3 µg/mL)	16 µM (≈ 33.3 µg/mL)	25.40 µM	32.00 µM	32 µM (≈ 66.7 µg/mL)	32 µM (≈ 66.7 µg/mL)	32.00 µM	32 µM (≈ 66.7 µg/mL)	64 µM (≈ 133 µg/mL)	–	–	–	–	–	–	–	–	MIC [2]: 16 µM (≈ 33.3 µg/mL); MBC [2]: 16 µM (≈ 33.3 µg/mL); MIC ([3]; read-out: MIC): 32 µM (≈ 66.7 µg/mL); MBC ([3]; read-out: MBC): 64 µM (≈ 133 µg/mL); MIC ([11]; read-out: MIC): 16 µM (≈ 33.3 µg/mL); MBC ([11]; read-out: MBC): 32 µM (≈ 66.7 µg/mL)
GLLSGVLGAGKKIVCGLSGR- [Peptide 1885-R, Rana Box modified analogue of Nigrosin-6VL]	–	–	>256 µM	128 µM	> 128 µM	128.00 µM	45.25 µM	> 128 µM	> 128 µM	256.00 µM	32 µM	64 µM	32 µM	64 µM	128 µM	> 128 µM	> 128 µM	> 128 µM	64 µM	64 µM	MIC ([1]; read-out: MIC): 32 µM; MBC ([1]; read-out: MBC): 64 µM
GLLSGVLGAGKKIVGLSGRC [Peptide 1885-C]	–	–	>256 µM	> 128 µM	> 128 µM	256.00 µM	64.00 µM	> 128 µM	> 128 µM	256.00 µM	64 µM	128 µM	16 µM	32 µM	> 128 µM	> 128 µM	> 128 µM	> 128 µM	> 128 µM	> 128 µM	MIC ([1]; read-out: MIC): 64 µM; MBC ([1]; read-out: MBC): 128 µM
H-GLLSGVLGAGKKIVGLSGR-OH [Peptide 1782-R]	> 128 µM	> 128 µM	>256 µM	> 128 µM	> 128 µM	256.00 µM	215.27 µM	> 128 µM	> 128 µM	256.00 µM	–	–	–	–	> 128 µM	> 128 µM	> 128 µM	> 128 µM	> 128 µM	> 128 µM	MIC [2]: 128 µM; MBC [2]: > 128 µM; MIC [10]: > 128 µM; MBC [10]: > 128 µM
GLLSGVLGAGKKIVAGLSGRA [Peptide 1924-A]	128 µM	> 128 µM	>256 µM	128 µM	> 128 µM	203.19 µM	107.63 µM	64 µM	128 µM	64.00 µM	64 µM	128 µM	64 µM	128 µM	> 128 µM	> 128 µM	> 128 µM	> 128 µM	> 128 µM	> 128 µM	–
GLLRGVLGAGKKIVCGLSGRC (disulfide 15-21 (inferred)) [Peptide 2057-C, N-terminus modified analogue of Nigrosin-6VL]	–	–	>256 µM	128 µM	> 128 µM	128.00 µM	64.00 µM	> 128 µM	> 128 µM	256.00 µM	64 µM	128 µM	16 µM	32 µM	> 128 µM	> 128 µM	> 128 µM	> 128 µM	–	–	MIC ([1]; read-out: MIC): 64 µM; MBC ([1]; read-out: MBC): 128 µM; MIC ([11]; read-out: MIC): 64 µM; MBC ([11]; read-out: MBC): 128 µM
